Data on two molecules can be found in patent EP2329817A1, “Retinoic acid receptor antagonists, miR-10a inhibitors and inhibitors of HOXB1 or HOXB3 repressors for treating pancreatic cancer” (Ernst-Moritz-Arndt-Universität Greifswald, priority 2009, dated 2011).

Values joined by “and” are separate entries in the source; they are usually repeats but may differ in a detail not shown here. Identical values can stand only once.

Assay [1] deals with PaTu-T cells. Kind of assay: In vitro migration assay (scratch assay). The note with it: compared to DMSO control. It is filed as cell-based, human. As to the method:
We used the selective RARα antagonist Ro-41-5253; to analyze its anti-migratory activity in an in vitro migration assay ("scratch assay") and in the zebrafish xenotransplantation model, respectively. […] Similar results were obtained when PaTu-T cells were treated with RAR -specific siRNAs (Supplemental Table 1 and Supplemental Fig. 1).
PaTu-T cells were incubated as indicated, with DMSO (Co), 200 nM Ro-41-5253 (RARα inh), control-Morpholino, miR-10a Morpholino, miR-196 siRNA (Co), or RARα siRNA and PaTu-S cells were co-incubated with 1 µM retinoic acid (RA) and control siRNA, RARα siRNA or Ro-415253 and miR-10a expression was evaluated by Northern blot analysis (A). […] RT-PCR control of GAPDH was used as a loading control (not shown). Dose response curves for RA and the RARα antagonist and the RT-PCR control for RARα siRNA treatment are shown in Supplemental Fig. 1. The effect of Ro-415253 on cell migration was analysed in an in vitro migration assay in PaTu-T cells. […] An actin re-blot confirmed equal loading.

Assay [2] has as its target T1, RARα (Homo sapiens, UniProt P10276).
T1 sequence (P10276 1-462): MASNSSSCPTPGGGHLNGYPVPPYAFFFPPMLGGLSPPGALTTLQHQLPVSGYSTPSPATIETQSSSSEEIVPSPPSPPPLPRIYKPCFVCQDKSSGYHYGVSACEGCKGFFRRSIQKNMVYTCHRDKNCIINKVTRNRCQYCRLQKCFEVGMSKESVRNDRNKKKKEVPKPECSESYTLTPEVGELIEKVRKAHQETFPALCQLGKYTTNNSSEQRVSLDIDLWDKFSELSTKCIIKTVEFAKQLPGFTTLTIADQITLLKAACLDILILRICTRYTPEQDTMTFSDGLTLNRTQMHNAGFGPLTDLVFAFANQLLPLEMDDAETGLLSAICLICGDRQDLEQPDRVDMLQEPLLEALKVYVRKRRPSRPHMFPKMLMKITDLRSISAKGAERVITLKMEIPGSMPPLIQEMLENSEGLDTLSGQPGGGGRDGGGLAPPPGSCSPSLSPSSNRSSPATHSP
The note with it: literature references 14, 15; read-out: 50% inhibition; cited from earlier work.

The subject of assay [3] is PaTu-S cells. Kind of assay: Zebrafish embryo xenotransplantation: invasion and metastatic behaviour of pretreated PaTu-S cells. It is filed as in vivo, human. As to the method: Zebrafish (Danio rerio) (Tuebingen line, AIB strain (Albinos) and Tg (fli1:eGFP) were handled in compliance with local animal care regulations and standard protocols of the Netherlands and Germany. Fish were kept at 28°C in aquaria with day/night light cycles (10 h dark versus 14 h light periods). The developing embryos were kept in an incubator at constant temperatures.
The selective RARα antagonist Ro-41-5253 was purchased from Biomol International, dissolved in DMSO and cells were treated overnight prior to injections at a final concentration of 200 nM (50% inhibition at 60nM)^14,15. Retinoic acid (ATRA, Sigma) was added to cells ON at a final concentration of 1 µM.
Cells were stained with CM-Dil (red fluorescence) at a 1:1000 dilution according to the manufacturers protocol (Vybrant, Invitrogen). Cells were suspended in 67% DPBS for injection into embryos. 2dpf zebrafish embryos were dechorionated and tranquilized with tricaine (Sigma). An injection needle (15µm diameter) with a manual injector (Eppendorf; Celltram Vario) was used to inject ∼200 cells into the yolk sac of 2dpf zebrafish embryos. On average 80 embryos were injected for each treatment and embryos with detectable cell scatter 2 h after the transfer (and therefore presumably due to the transfer procedure) were excluded from further analysis. Presence of cells was checked after 2 h incubation at 31°C and embryos were subsequently kept at 35°C. We defined metastasis based on the number of fluorescent cells that were detected outside the yolk sac 2 days after the transfer. Presence of 5 or more cells was considered "metastasised" and percentages of metastasised fish in each experiment were counted. The occurence of micro-metastasis is indicated by cell clusters of ≥4 cells presumably originating from cell division. PaTu-S cells and ASPC1 cells were transfected ON with indicated concentrations of miR-10a siRNA in the presence of ICA-Fectin TM442 (Eurogentec, Belgium). Whole cell lysates were prepared 36h post-transfection and 40 µg of total lysates were separated on 7.5% PAA-gels and blotted with anti E-cadherin, α-catenin, β-catenin (all mAbs, Transduction Labs) and actin antibodies (mAb Sigma-Aldrich, Germany).
Morpholino antisense oligonucleotides were obtained from Gene Tools, LLC (OR, USA) and used as previously described^19. The miR-10a antisense Morpholino sequence is: […]. Standard control Morpholino was […]. Both miR-10a and control Morpholinos were fluorescein labeled. The siRNAs for human HOXB1, human HOXB3 and human RARα were purchased from Santa Cruz Biotechnology (HOXB1: sc-38686, HOXB3: sc-38690 and RARα: sc-29465). EndoPorter (Gene Tools, LLC) was used to deliver Morpholinos and siRNAs into cells and efficiencies for Morpholinos were checked by fluorescence microscopy to be >98%. For the miR-10a siRNA, the sense strand corresponds to […]. The sequence of control siRNA (miR-196a) was […] with the corresponding antisense sequence). 30 µl of each siRNA oligo (50 µM) were annealed by gradually cooling from 98°C to 20°C in a volume of 75 µl annealing buffer (50 mM Tris, pH 7.8, 100 mM NaCl RNAse free). The effect of miR-10a Morpholinos on miR-10a function was tested with a sensor construct: pCS2+ EGFP 4x miR-10 AS containing 4 copies of a miR-10a antisense sequence.

[4] abbreviates: Experiment 1, Day 1, number of embryos.
The mark [5] stands for this setting: Experiment 1, Day 2, number of embryos.
The mark [6] stands for this setting: Experiment 1, Day 3, number of embryos.
Setting [7] is: Experiment 2, Day 1, number of embryos.
The mark [8] stands for this setting: Experiment 2, Day 2, number of embryos.
[9] abbreviates: Experiment 2, Day 3, number of embryos.

On to `CCCCCCCOc1cc2c(cc1/C(C)=C/c1ccc(C(=O)O)cc1)C(C)(C)CCS2(=O)=O` [Ro-41-5253, Benzoic acid, 4-(2-(7-(heptyloxy)-3,4-dihydro-4,4-dimethyl-2H-1-benzothiopyran-6-yl)-1-propenyl)-, S,S-dioxide, (E)], for which the cell migration entry is reported as “significant inhibition” in assay [1] and “significantly decreased” in assay [1] (listed as RARα antagonist). The IC50 in assay [2] is 60 nM.

On to `CC1=C(/C=C/C(C)=C/C=C/C(C)=C/C(=O)O)C(C)(C)CCC1` [RA, all trans retinoic acid], for which the “total >5” value in assay [3] (Experiment 1, number of embryos (equals the Day 1 total)) is listed as 14; in assay [3] (setting [4]), 14; in assay [3] (setting [5]), 14; in assay [3] (setting [6]), 12; in assay [3] (Experiment 1, summary line, percentage in brackets (of embryos alive)), 24.1%; in assay [3] (Experiment 2, number of embryos (equals the Day 1 total)), 20. The “total >5” value was determined as 20 in assay [3] (setting [7]); 17 in assay [3] (setting [8]); 17 in assay [3] (setting [9]); 31.2% in assay [3] (Experiment 2, summary line, percentage in brackets (of embryos alive)). Further, the “Migration 5 to 20” value in assay [3] (setting [4]) is given as 11; in assay [3] (setting [5]), 10; in assay [3] (setting [6]), 19; in assay [3] (setting [7]), 15; in assay [3] (setting [8]) it was 13; in assay [3] (setting [9]), 12. Besides, the “Migration <5” value in assay [3] (setting [4]) stood at 1; in assay [3] (setting [5]), 0; in assay [3] (setting [6]) it was 0; in assay [3] (setting [7]) it was 1; in assay [3] (setting [8]), 1; in assay [3] (setting [9]), 1. For the same molecule, the “Migration >20” value in assay [3] (setting [4]) was 3; in assay [3] (setting [5]), 4; in assay [3] (setting [6]), 3; in assay [3] (setting [7]), 5; in assay [3] (setting [8]), 4; in assay [3] (setting [9]) it was 5. In addition, in assay [3] (Table 1, pretreated PaTu-S cells transplanted into zebrafish embryos, average of 2-4 experiments), the “Average % (observed metastasised embryos)” value came out at 27.7%. Further, the “%migration, Average” value in assay [3] (average of experiments, PaTu-S) was found to be 27.7%. In addition, the “%migration” value in assay [3] (single experiments, PaTu-S) was 24.1% and 31.2%.
